Experimental data from the supplement of paper PMC10307832.

Tests used:
Test in all cases: relative viability (nuclei count vs DMSO), 5 days (fraction); higher = more cells survive
[1] = compound: OCc1c[nH]c2ccccc12 [Indole-3-carbinol] + C[C@@H](Oc1cc(-c2cnn(C3CCNCC3)c2)cnc1N)c1c(Cl)ccc(F)c1Cl [Crizotinib] (partner 1 µM)
Method in brief: (§1)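 Medians of duplicate plates are given as relative viability. That measure is the nuclei count in treated wells divided by the count in vehicle wells. Counts were taken on 4× images of lung cancer cell lines in 1536-well plates, 5 days after pin-tool dosing the day after seeding with one drug alone or a fixed anchor-drug dose plus five library-drug doses (not always all listed) in √10 steps.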

[2] = compound: OCc1c[nH]c2ccccc12 [Indole-3-carbinol] + CC(C)C[C@H](NC(=O)[C@H](Cc1ccccc1)NC(=O)c1cnccn1)B(O)O [Bortezomib] (partner 0.002 µM)
Method in brief: as §1

[3] = compound: OCc1c[nH]c2ccccc12 [Indole-3-carbinol] + Nc1nc2[nH]cc(CCc3ccc(C(=O)N[C@@H](CCC(=O)O)C(=O)O)cc3)c2c(=O)[nH]1 [Pemetrexed] (partner 0.2 µM)
Method in brief: as §1

[4] = compound: OCc1c[nH]c2ccccc12 [Indole-3-carbinol] + Nc1ncn([C@H]2C[C@H](O)[C@@H](CO)O2)c(=O)n1 [Decitabine] (partner 2 µM)
Method in brief: as §1

[5] = compound: OCc1c[nH]c2ccccc12 [Indole-3-carbinol] + COc1cccc2cc(-c3nc([C@H]4CC[C@H](C(=O)O)CC4)n4ncnc(N)c34)[nH]c12 [OSI-027] (partner 0.5 µM)
Method in brief: as §1

Row | Cell Line | relative viability ([1]; first compound 0.253 µM) | relative viability ([1]; first compound 0.8 µM) | relative viability ([1]; first compound 2.53 µM) | relative viability ([1]; first compound 8 µM) | relative viability ([2]; first compound 0.253 µM) | relative viability ([2]; first compound 0.8 µM) | relative viability ([2]; first compound 2.53 µM) | relative viability ([2]; first compound 8 µM) | relative viability ([3]; first compound 0.253 µM) | relative viability ([3]; first compound 0.8 µM) | relative viability ([3]; first compound 2.53 µM) | relative viability ([3]; first compound 8 µM) | relative viability ([4]; first compound 0.253 µM) | relative viability ([4]; first compound 0.8 µM) | relative viability ([4]; first compound 2.53 µM) | relative viability ([4]; first compound 8 µM) | relative viability ([5]; first compound 0.253 µM) | relative viability ([5]; first compound 0.8 µM) | relative viability ([5]; first compound 2.53 µM) | relative viability ([5]; first compound 8 µM)
1 | HCC-366 | 0.606 | 0.497 | 0.732 | 0.561 | 0.986 | 0.858 | 1.05 | 1.09 | 0.198 | 0.202 | 0.179 | 0.169 | 0.384 | 0.335 | 0.369 | 0.335 | 0.954 | 0.777 | 0.898 | 0.881
2 | HCC-827 | 0.9 | 1.03 | 0.945 | 0.892 | 0.873 | 0.986 | 1.03 | 0.986 | 0.261 | 0.258 | 0.278 | 0.255 | 0.379 | 0.337 | 0.312 | 0.34 | 0.751 | 0.659 | 0.723 | 0.808
3 | HOP-62 | 0.621 | 0.912 | 0.889 | 0.924 | 0.989 | 0.711 | 0.82 | 0.521 | 0.284 | 0.296 | 0.388 | 0.376 | 0.187 | 0.218 | 0.228 | 0.196 | 0.802 | 0.796 | 0.791 | 0.789
4 | IA-LM | 0.722 | 1.08 | 0.863 | 0.738 | 0.842 | 0.898 | 0.82 | 0.789 |  |  |  |  |  |  |  |  |  |  |  | 
5 | LC-2-ad | 0.514 | 0.439 | 0.484 | 0.42 | 1.13 | 1.11 | 0.994 | 0.974 | 0.282 | 0.276 | 0.246 | 0.263 | 0.715 | 0.883 | 0.71 | 0.774 | 0.888 | 0.776 | 0.826 | 0.787
6 | LCLC-97TM1 | 0.368 | 0.534 | 0.389 | 0.442 | 0.651 | 0.686 | 0.778 | 0.447 | 0.167 | 0.197 | 0.185 | 0.154 | 0.259 | 0.249 | 0.199 | 0.223 | 0.381 | 0.527 | 0.386 | 0.668
7 | LCLC-103H | 1.13 | 1.12 | 1.01 | 0.977 | 1.06 | 1.14 | 1.2 | 0.958 | 0.444 | 0.493 | 0.462 | 0.468 | 0.789 | 0.675 | 0.668 | 0.623 | 0.452 | 0.513 | 0.428 | 0.431
8 | LK-2 | 0.239 | 0.218 | 0.198 | 0.229 |  |  |  |  | 0.273 | 0.216 | 0.313 | 0.358 | 0.308 | 0.231 | 0.374 | 0.327 | 0.198 | 0.145 | 0.189 | 0.215
9 | LOU-NH91 | 0.771 | 0.61 | 0.71 | 0.714 | 0.497 | 0.459 | 0.566 | 0.522 | 0.432 | 0.404 | 0.401 | 0.396 | 0.827 | 0.781 | 0.818 | 0.831 | 0.747 | 0.671 | 0.722 | 0.689
